Results published in article PMC10180065, “Mechanistic Studies of Arene–Ruthenium(II) Complexes with Carbothioamidopyrazoles as Alternative Cancer Drugs” (Molecules, 2023).

Assays:
HT29 = assay: MTT cytotoxicity, HT29; type: cell-based, human; conditions: 48 h incubation, read-out: Cytotoxic effect, IC50
Procedure: (§1) Cytotoxicity was evaluated against fifteen adherent human cancer cell lines using the MTT test: colorectal adenocarcinoma cells Caco2 (ATCC® HTB-37™), colorectal adenocarcinoma cells HT29 (ATCC® HTB-38™), colon colorectal carcinoma HCT116 (ATCC® CCL-247™), colon adenocarcinoma COLO205 (ATCC® CCL-222™), colorectal adenocarcinoma SW620 (ATCC® CCL-227™), colorectal adenocarcinoma grade IV LoVo (ATCC® CCL-229™), hepatocellular carcinoma Hep 3b (ATCC® HB-8064™), endometrium adenocarcinoma HEC1A (ATCC® HTB-112™), Ishikawa (99040201; Sigma–Aldrich Sigma, St. Louis, MO, USA), cervical adenocarcinoma cells HeLa (ATCC® CCL-2™), lung epithelial carcinoma A549 (ATCC® CRM-CCL-185™), breast epithelial adenocarcinoma cell positive for estrogen and progesterone receptors MCF7 (ATCC® HTB-22™) and negative for expression of estrogen receptor HCC38 (ATCC® CRL-2314™), acute promyelocytic leukemia HL-60 (ATCC® CCL-240™), skin melanoma WM115 (ATCC® CRL-1676™), and 1 suspension cancer cell line: acute lymphoblastic leukemia NALM6 (purchased from the German Collection of Microorganisms and Cell Cultures). HT29, NALM6, HCC-38 and HL-60 cells were cultured in RPMI 1640 medium (Thermo Fisher Scientific, Waltham, MA, USA) supplemented with 10% fetal bovine serum and antibiotic (gentamicin 25 μg ml^−1) (Gibco, Grand Island, New York, NY, USA). For the remaining tumor cell lines, Dulbecco’s minimal essential medium (DMEM, Lonza, Visp, Switzerland) supplemented with 10% fetal bovine serum and antibiotic instead of RPMI 1640 was used. In addition, Human Microvascular Endothelial Cells (HMEC1), which were obtained from the American Type Culture Collection (Manassas, VA, USA), were used as a model of normal cells. HMEC-1 were cultured in MCDB131 medium (Corning Life Sciences, Corning, NY, USA), supplemented with 10% fetal bovine serum, 10 ng/mL Epidermal Growth Factor (Millipore, Burlington, MA, USA) and 10 mM glutamine (Corning Life Sciences). All cells were grown at 37 °C in humidified atmosphere of 5% CO2 in air. The exponential growth of cells was maintained by regular passaging at 90% confluence three times a week using 0.025% trypsin/EDTA (Gibco, Grand Island, New York, NY, USA).
(§2) The cytotoxicity was tested by a standard MTT [3-(4,5-dimethylthiazol-2-yl)-2,5-diphenyltetrazolium bromide] (Sigma, St. Louis, MO, USA) microplate cell viability assay. The anticancer activity of the investigated compounds was evaluated in vitro on the basis of their ability to inhibit the proliferation of various cancer cells. Exponentially growing cells were seeded a day before the experiment into a 96-well microplate (Nunc, Roskilde, Denmark) at a density up to 6–8 × 10^3 cells/mL (depending on the cell line) and exposed to the test compounds at a wide range of concentrations for 48 h. Subsequently, various concentrations of the studied compounds (10^−7–10^−5 M) freshly prepared in DMSO (final concentration of <0.1% DMSO) and diluted with complete culture medium were added. After 48 h incubation, the cells were immediately subjected to a cell viability assay. At this time point, the number of viable cells in each well was estimated by the MTT test. Briefly, 50 µL (5 mg/mL final concentration) of MTT was added to each microplate well. This procedure was then followed by a three- to four-hour incubation at 37 °C. After incubation, MTT solution was replaced with 100 µL DMSO/well, which solubilized the formazan crystals formed by the dehydrogenases of metabolically active cells. Purple formazan absorbance was measured spectrophotometrically at 570 nm.

Colo205 = assay: MTT cytotoxicity, Colo205; type: cell-based, human; conditions: 48 h incubation, read-out: Cytotoxic effect, IC50
Procedure: as §1, §2

SW620 = assay: MTT cytotoxicity, SW620; type: cell-based, human; conditions: 48 h incubation, read-out: Cytotoxic effect, IC50
Procedure: as §1, §2

LoVo = assay: MTT cytotoxicity, LoVo; type: cell-based, human; conditions: 48 h incubation, read-out: Cytotoxic effect, IC50
Procedure: as §1, §2

Caco2 = assay: MTT cytotoxicity, Caco2; type: cell-based, human; conditions: 48 h incubation, read-out: Cytotoxic effect, IC50
Procedure: as §1, §2

Hep 3b = assay: MTT cytotoxicity, Hep 3b; type: cell-based, human; conditions: 48 h incubation, read-out: Cytotoxic effect, IC50
Procedure: as §1, §2

HEC1A = assay: MTT cytotoxicity, HEC1A; type: cell-based, human; conditions: 48 h incubation, read-out: Cytotoxic effect, IC50
Procedure: as §1, §2

Ishikawa = assay: MTT cytotoxicity, Ishikawa; type: cell-based, human; conditions: 48 h incubation, read-out: Cytotoxic effect, IC50
Procedure: as §1, §2

Hela = assay: MTT cytotoxicity, Hela; type: cell-based, human; conditions: 48 h incubation, read-out: Cytotoxic effect, IC50
Procedure: as §1, §2

A549 = assay: MTT cytotoxicity, A549; type: cell-based, human; conditions: 48 h incubation, read-out: Cytotoxic effect, IC50
Procedure: as §1, §2

HCC38 = assay: MTT cytotoxicity, HCC38; type: cell-based, human; conditions: 48 h incubation, read-out: Cytotoxic effect, IC50
Procedure: as §1, §2

MCF7 = assay: MTT cytotoxicity, MCF7; type: cell-based, human; conditions: 48 h incubation, read-out: Cytotoxic effect, IC50
Procedure: as §1, §2

WM115 = assay: MTT cytotoxicity, WM115; type: cell-based, human; conditions: 48 h incubation, read-out: Cytotoxic effect, IC50
Procedure: as §1, §2

NALM6 = assay: MTT cytotoxicity, NALM6; type: cell-based, human; conditions: 48 h incubation, read-out: Cytotoxic effect, IC50
Procedure: as §1, §2

HL60 = assay: MTT cytotoxicity, HL60; type: cell-based, human; conditions: 48 h incubation, read-out: Cytotoxic effect, IC50
Procedure: as §1, §2

[1] = test system: human microvascular endothelial cell line HMEC1; assay: MTT cytotoxicity, normal endothelial cells HMEC1; type: cell-based; conditions: for IC50: HMEC1 normal endothelial cells, 48 h incubation, read-out: Cytotoxic effect, IC50; for IC50 for HMEC-1 higher than for cancer cells (selectivity): HMEC-1 vs cancer cells
Procedure: as §1, §2

Lipophilicity by RP-TLC = type: physicochemical; parameters: key: RM = log(1/Rf − 1), Rf = a/b; conditions: eluent AcCN: H2O at 30–70% v/v, 22 °C
Procedure: All the experimental solutions of standard substances (0.1 mg/mL) were prepared by dissolving ligands (1a–1d) or ruthenium complexes (2a/3a–2d/3d) in ethanol. Commercially-available octadecyl-modified silica aluminum sheets (20 × 20 cm) were cut into 5 × 10 cm plates. The plates were manually spotted with 1.0 μL of freshly prepared solutions using automatic pipets, 5 mm from each edge. The chromatograms for all compounds (1a/2a/3a–1d/2d/3d) were developed using a horizontal developing chamber and the solvent migration distance was about 4.5 cm. The plates were visually inspected under UV light at 254 nm. Each zone was clearly marked and its distance was manually measured. The RP-TLC analyses of lipophilicity were performed at ambient temperature (22 °C). In this experiment, all measurements were performed in triplicate and the obtained results were used in further calculations. The acetonitrile and water mixtures for ligands 1a–1d and arene–ruthenium(II) complexes 2a/3a–2d/3d were used as mobile phases, with […] content increasing in the range of 30–70% v/v, at 5% intervals. Values of the chromatographic retention coefficient Rf (as shown Formula (1)) and RM (as shown Formula (2)), based on received chromatograms, were calculated and converted as follows:(1) Rf=a/b (2) RM=log1/Rf−1

Structure (SMILES) | Lipophilicity, RM (Lipophilicity by RP-TLC) | IC50 (HT29) [µM] | IC50 (Colo205) [µM] | IC50 (SW620) [µM] | IC50 (LoVo) [µM] | IC50 (Caco2) [µM] | IC50 (Hep 3b) [µM] | IC50 (HEC1A) [µM] | IC50 (Ishikawa) [µM] | IC50 (Hela) [µM] | IC50 (A549) [µM] | IC50 (HCC38) [µM] | IC50 (MCF7) [µM] | IC50 (WM115) [µM] | IC50 (NALM6) [µM] | IC50 (HL60) [µM] | IC50 [1] [µM] | IC50 for HMEC-1 higher than for cancer cells (selectivity) [1]
CCc1cc(CC)n(C(N)=S)n1.Cc1ccc(C(C)C)cc1.[Cl-].[Cl][Ru+] [2b] | 2.59 | 107 ± 5.9 | 115 ± 4.1 | 107 ± 3.4 | 59.7 ± 3.2 | > 200 | > 200 | 36.4 ± 1.7 | 51.4 ± 1.9 | 164 ± 8.5 | > 200 | 63.7 ± 4.4 | 82.7 ± 3 | 54.9 ± 5.9 | 40 ± 5.6 | 80.8 ± 3.9 | 125 ± 2.1 | 3–5 times
Cc1ccc(C(C)C)cc1.Cc1ccc(C(C)C)cc1.[Cl][Ru][Cl].[Cl][Ru][Cl] [compound 4, dichloro(p-cymene)ruthenium(II), reference compound] | – | > 200 | > 200 | > 200 | 168 ± 7 | > 200 | 167 ± 6.8 | 108 ± 3.4 | 120 ± 7.2 | > 200 | > 200 | > 200 | > 200 | > 200 | > 200 | > 200 | – | –

The next lines start with results.

Lipophilicity, RM (Lipophilicity by RP-TLC) | Structure (SMILES) | IC50 (HT29) [µM] | IC50 (Colo205) [µM] | IC50 (SW620) [µM] | IC50 (LoVo) [µM] | IC50 (Caco2) [µM] | IC50 (Hep 3b) [µM] | IC50 (HEC1A) [µM] | IC50 (Ishikawa) [µM] | IC50 (Hela) [µM] | IC50 (A549) [µM] | IC50 (HCC38) [µM] | IC50 (MCF7) [µM] | IC50 (WM115) [µM] | IC50 (NALM6) [µM] | IC50 (HL60) [µM] | IC50 [1] [µM] | IC50 for HMEC-1 higher than for cancer cells (selectivity) [1]
2.40 | Cc1cc(C)n(C(N)=S)n1.Cc1ccc(C(C)C)cc1.[Cl-].[Cl][Ru+] [2a] | 111 ± 4.9 | 110 ± 6.7 | 118 ± 6.1 | > 200 | > 200 | > 200 | 62.3 ± 0.9 | 90.7 ± 3.7 | > 200 | 121 ± 3.6 | 84.4 ± 1.1 | > 200 | 60.2 ± 6.3 | 51.6 ± 5.7 | 88.9 ± 6.1 | 156 ± 4.9 | 3–5 times
2.55 | Cc1cc(C)n(C(N)=S)n1.Cc1ccc(C(C)C)cc1.F[P-](F)(F)(F)(F)F.[Cl-].[Ru+2] [3a] | 123 ± 3.9 | 59.6 ± 3.4 | 63.9 ± 2.7 | 127 ± 3.7 | 107 ± 8.4 | 55.3 ± 2.6 | 77.2 ± 4.4 | > 200 | 98.7 ± 7.4 | > 200 | > 200 | > 200 | 64.1 ± 5.1 | 46.1 ± 5.1 | 79.7 ± 7.2 | > 200 | 3–5 times
2.39 | Cc1cc(O)n(C(N)=S)n1.Cc1ccc(C(C)C)cc1.F[P-](F)(F)(F)(F)F.[Cl-].[Ru+2] [3d] | 185.2 ± 1.8 | > 200 | > 200 | 110 ± 6.9 | 162 ± 6.1 | > 200 | 128 ± 2.1 | > 200 | > 200 | 152 ± 2.8 | 188 ± 6.4 | > 200 | > 200 | > 200 | > 200 | – | –
